What was measured:
[1] = Stain removal on wine stains (MiniWasher, image analysis); conditions: wash 32.2° C., 6 gpg hardness, 12 minutes
Procedure: (§1) The performance of the chelants were measured on wine and tea. Wine and tea stains were applied to cotton and obtained from EMC (US). Stains and ballast load consisting of 0.5 kg of T-shirt was added to a MiniWasher representing a medium US wash conditions. The wash water was set at 32.2° C.±1° C. and 6 gpg (1 mmol/L) hardness and the rinse water was set at 15.5° C.±1° C. The water volume was 15 liters and wash time 12 minutes.
(§2) The stains and the ballast were dried at the end of each cycle under high speed and high heat with cool down cycle. The results were then analyzed by image analysis which is a method that enables to calculate the amount of stain that is removed. Stains are imaged before washing and after washing. The imaging calculates the amount of stain removal index (SRI). SRI of 100 means complete removal and SRI of zero is no removal.
(§3) The Laundry Image Analysis system (Merlin image analysis system) measures stain removal on technical stain swatches. The system utilizes a video camera to acquire color images of swatches. An image of the swatch is taken before and after it is washed. The acquired image is then analyzed by computer software (Global R&D computing). The software compares the unwashed stain to the washed stain, as well as the unwashed fabric to the washed fabric and produces five figures of merit which describe stain removal. The data are then analyzed statistically to determine statistically significant differences between the detergent performances.
(§4) The stain removal index uses the initial fabric as the reference against which to measure color differences between unwashed and washed stains. A higher value indicates a better cleaning and stain removal thus a better detergent. The standard deviation is 1.

[2] = Stain removal on tea stains (MiniWasher, image analysis); conditions: wash 32.2° C., 6 gpg hardness, 12 minutes
Procedure: as §1, §2, §3, §4

[3] = Product stability on storage, assessed visually; type: physicochemical
Procedure: Products (I through III) were prepared by combining Composition C and the 3 different chelant combinations. The products (75 g) were stored for 4 weeks at 4° C., 20° C. and 35° C. in a Glass Jar (100 mL contenance). The product stability was then assessed visually. If there is a visual precipitate or a product phase split, the stability is considered Fail. Stability is considered Pass if there is no signs of changes during the storage period.

[4] = Cleaning efficacy of compact liquid detergent composition; conditions: composition comprising 0.7% of Na-DTPA
[5] = chelant 1 ppm, SRI 100 = complete removal, standard deviation 1

Stability of compact liquid detergent composition ([3]; composition comprising 0.7% of Na-DTPA)	Stability of compact liquid detergent composition ([3]; quantity of Na-DTPA increased to the effective level)	Structure (SMILES)	Stain Removal Index Wine [1, 5]	Stain Removal Index Wine ([1]; chelant 2 ppm)	Stain Removal Index Wine ([1]; chelant 3 ppm)	Stain Removal Index Tea [2, 5]	Stain Removal Index Tea ([2]; chelant 2 ppm)	Stain Removal Index Tea ([2]; chelant 3 ppm)	Cleaning efficacy [4]
stable	does not meet the stability requirements	O=C([O-])CN(CCN(CC(=O)[O-])CC(=O)[O-])CCN(CC(=O)[O-])CC(=O)[O-].[Na+].[Na+].[Na+].[Na+].[Na+] [Na-DTPA, sodium salt of diethylene triamine pentaacetate]	55.2	55.8	56.4	27.6	29.0	27.1	does not provide desired cleaning efficacy
–	–	O=C([O-])CC(NCCNC(CC(=O)O)C(=O)[O-])C(=O)[O-].[Na+].[Na+].[Na+] (stereo not drawn) [Na-EDDS, sodium salt of Ethylenediamine-N,N′-disuccinic acid]	58.3	59.0	56.8	28.2	29.3	26.1	–

From patent US8629093B2, “Detergent composition comprising mixture of chelants” (The Procter & Gamble Company, priority 2010, dated 2014)
